Results from ChEMBL document CHEMBL3044659, “Docking, synthesis, and pharmacological evaluation of isoindoline derivatives as anticonvulsant agents” (Med Chem Res, 2013).
Activity calls are given as the source filed them.

Key:
Mus musculus [1] = assay: Anticonvulsant activity in pentylenetetrazole-induced seizure Swiss Mus musculus (mouse) model assessed as increase in clonic seizure threshold at 40 mg/kg, ip measured after 30 min (reference value: 38.9 +/-1.01 mg/kg); format: functional; settings: route intraperitoneal
Mus musculus [2] = assay: Anticonvulsant activity in pentylenetetrazole-induced seizure Swiss Mus musculus (mouse) model assessed as increase in tonic seizure threshold at 40 mg/kg, ip measured after 30 min (reference value: 59.58 +/-1.01 mg/kg); format: functional; settings: route intraperitoneal
[3] = molecular target: Sodium channel protein type 2 subunit alpha (Homo sapiens, UniProt Q99250); assay: Binding affinity to Nav 1.2 (unknown origin)
Mus musculus [4] = assay: Anticonvulsant activity in pentylenetetrazole-induced seizure Swiss Mus musculus (mouse) model assessed as increase in clonic seizure threshold at 10 to 20 mg/kg, ip measured after 30 min; format: functional, organism-based

Sodium channel protein type 2 subunit alpha, sequence (Q99250 whole entry): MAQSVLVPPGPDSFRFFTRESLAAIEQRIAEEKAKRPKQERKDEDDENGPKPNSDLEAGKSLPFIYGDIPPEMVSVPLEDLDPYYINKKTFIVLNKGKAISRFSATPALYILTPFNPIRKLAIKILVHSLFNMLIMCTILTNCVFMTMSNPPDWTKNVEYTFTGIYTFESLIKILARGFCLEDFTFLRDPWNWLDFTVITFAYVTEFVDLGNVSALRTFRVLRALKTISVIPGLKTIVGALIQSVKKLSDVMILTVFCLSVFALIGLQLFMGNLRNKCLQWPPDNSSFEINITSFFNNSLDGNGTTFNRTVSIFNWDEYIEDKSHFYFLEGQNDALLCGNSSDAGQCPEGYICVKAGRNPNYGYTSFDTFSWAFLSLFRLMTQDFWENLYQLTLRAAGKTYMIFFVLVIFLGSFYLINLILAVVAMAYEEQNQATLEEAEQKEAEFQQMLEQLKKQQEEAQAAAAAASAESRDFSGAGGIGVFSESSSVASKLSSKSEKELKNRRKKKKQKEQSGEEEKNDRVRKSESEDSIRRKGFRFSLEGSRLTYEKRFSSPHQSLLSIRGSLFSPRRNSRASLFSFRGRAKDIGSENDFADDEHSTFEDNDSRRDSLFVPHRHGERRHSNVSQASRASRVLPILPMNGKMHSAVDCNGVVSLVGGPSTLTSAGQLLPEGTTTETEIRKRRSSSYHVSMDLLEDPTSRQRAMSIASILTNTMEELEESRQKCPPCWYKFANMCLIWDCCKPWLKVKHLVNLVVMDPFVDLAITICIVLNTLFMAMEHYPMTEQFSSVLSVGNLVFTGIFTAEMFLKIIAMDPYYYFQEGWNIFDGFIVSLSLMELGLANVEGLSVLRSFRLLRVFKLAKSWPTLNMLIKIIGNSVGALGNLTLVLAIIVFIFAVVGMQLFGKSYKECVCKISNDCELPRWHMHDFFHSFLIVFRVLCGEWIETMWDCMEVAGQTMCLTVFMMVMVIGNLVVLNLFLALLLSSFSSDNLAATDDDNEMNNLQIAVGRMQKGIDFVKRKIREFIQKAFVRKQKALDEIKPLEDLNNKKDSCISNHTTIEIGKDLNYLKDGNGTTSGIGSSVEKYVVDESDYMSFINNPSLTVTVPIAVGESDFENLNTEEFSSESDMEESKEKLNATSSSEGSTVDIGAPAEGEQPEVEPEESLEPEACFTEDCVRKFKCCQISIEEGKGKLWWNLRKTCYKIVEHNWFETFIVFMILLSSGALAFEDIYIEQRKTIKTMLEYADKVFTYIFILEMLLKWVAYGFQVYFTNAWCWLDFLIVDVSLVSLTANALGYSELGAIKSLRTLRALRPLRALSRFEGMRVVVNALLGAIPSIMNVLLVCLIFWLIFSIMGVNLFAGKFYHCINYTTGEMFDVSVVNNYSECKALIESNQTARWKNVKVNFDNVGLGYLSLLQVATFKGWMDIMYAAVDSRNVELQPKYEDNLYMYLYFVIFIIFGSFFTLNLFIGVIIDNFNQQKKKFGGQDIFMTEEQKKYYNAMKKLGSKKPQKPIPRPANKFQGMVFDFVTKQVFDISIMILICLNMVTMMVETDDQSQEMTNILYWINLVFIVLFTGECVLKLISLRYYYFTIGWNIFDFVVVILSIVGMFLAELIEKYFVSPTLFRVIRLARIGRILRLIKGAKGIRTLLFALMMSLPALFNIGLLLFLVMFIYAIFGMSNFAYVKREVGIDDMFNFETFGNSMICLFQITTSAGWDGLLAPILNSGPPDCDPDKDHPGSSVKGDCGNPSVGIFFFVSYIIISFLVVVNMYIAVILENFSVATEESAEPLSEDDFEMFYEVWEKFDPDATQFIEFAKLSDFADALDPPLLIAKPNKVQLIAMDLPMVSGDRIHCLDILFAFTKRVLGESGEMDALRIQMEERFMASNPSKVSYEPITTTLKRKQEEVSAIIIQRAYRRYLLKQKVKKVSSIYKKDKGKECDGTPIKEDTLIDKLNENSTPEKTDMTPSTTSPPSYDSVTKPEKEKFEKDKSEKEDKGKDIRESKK

Ki [3] | Structure (SMILES) | Clonic seizure threshold (PTZ dose) (Mus musculus [1]) | Tonic seizure threshold (PTZ dose) (Mus musculus [2]) | Activity (Mus musculus [4])
50.4 µM | O=C(O)c1ccc(N2C(=O)c3ccccc3C2=O)cc1 | 46.65 mg/kg | 79.94 mg/kg | –
20.3 µM | COc1ccc(N2C(=O)c3ccccc3C2=O)c(N)c1 | 56.34 mg/kg | 98.12 mg/kg | –
16 µM | NS(=O)(=O)c1ccc(N2C(=O)c3ccccc3C2=O)cc1 | 33.4 mg/kg | 60.56 mg/kg | –
21.8 µM | O=C1c2ccccc2C(=O)N1c1cccc([N+](=O)[O-])c1 | 64.89 mg/kg | 96.84 mg/kg | –
65.6 µM | O=C1c2ccccc2C(=O)N1c1ccc([N+](=O)[O-])cc1 | 41.12 mg/kg | 61.6 mg/kg | –
– | O=C1NC(=O)C(c2ccccc2)(c2ccccc2)N1 [PHENYTOIN] | 49.2 mg/kg | 115 mg/kg | inactive
61.1 µM | NS(=O)(=O)c1nnc(N2C(=O)c3ccccc3C2=O)s1 | 45.14 mg/kg | 62.35 mg/kg | –
134 µM | O=C1c2ccccc2C(=O)N1c1ccccc1[N+](=O)[O-] | 46.34 mg/kg | 65.66 mg/kg | –
108 µM | COc1ccc(N2C(=O)c3ccccc3C2=O)c([N+](=O)[O-])c1 | 49.4 mg/kg | 61.92 mg/kg | –
18.3 µM | CC(=O)Nc1ccc(N2C(=O)c3ccccc3C2=O)cc1 | 40.37 mg/kg | 86.37 mg/kg | –
78.4 µM | O=C(O)c1ccc(N2C(=O)c3ccccc3C2=O)cc1O | 52.1 mg/kg | 64.97 mg/kg | –
338 µM | O=C(O)c1ccccc1N1C(=O)c2ccccc2C1=O [N-PHTHALOYLANTHRANILIC ACID] | 42.95 mg/kg | 58.08 mg/kg | –
